From patent US10351560B2, “Crystalline forms” (IDORSIA PHARMACEUTICALS LTD, priority 2015, dated 2019)

What was measured:
[1] = Gravimetric vapour sorption (GVS) analysis; assay type: physicochemical; conditions: 25° C., mass change between 20% and 80% RH in first adsorption scan; mass change larger then 0.2% and smaller then 2%
Protocol: Gravimetric Vapour Sorption (GVS) Analysis
Measurements were performed on a multi sample instrument SPS-100n (Projekt Messtechnik, Ulm, Germany) operated in stepping mode at 25° C. The sample was allowed to equilibrate at 40% RH before starting a pre-defined humidity program (40-0-95-0-95-40% RH, steps of 5% ΔRH and with a maximal equilibration time of 24 hours per step were applied. About 20 to 30 mg of each sample was used. The hygroscopic classification is done according to the European Pharmacopeia Technical Guide (1999, page 86), e.g., slightly hygroscopic: increase in mass is less than 2% and equal to or greater than 0.2% mass/mass; hygroscopic: increase in mass is less than 15% and equal to or greater than 2% mass/mass. The mass change between 20% relative humidity and 80% relative humidity in the first adsorption scan is considered.

[2] = system: eosinophils (PGD2-induced shape change); test: Eosinophil shape change assay with human plasma; assay type: cell-based; conditions: 50% human plasma, PGD2 100 nM activation, read-out: Antagonistic activity IC50
Protocol: Eosinophil Shape Change Assay with Human Plasma After obtaining informed consent, blood samples were drawn by venipuncture according to the protocol approved by the ethics committee of Basel, Switzerland. Polymorphonuclear leukocytes (containing eosinophils, basophils and neutrophils) were isolated using the Polymorphprep™ method (Axis-Shield). In brief, anticoagulated whole blood was layered onto a Polymorphprep gradient (density 1.113 g/ml) and centrifuged at 500 g for 30 min. The polymorphonuclear cell fraction was harvested and depleted for erythrocytes by hypotonic saline lysis. […]
Immediately after fixation with paraformaldehyde, the samples were analyzed by FACSCanto flow cytometer (BD Biosciences) and target cells were identified by their forward-scatter (FSC) and side-scatter (SSC) characteristics. […] Shape change responses, indicative of eosinophil activation, were quantified as the percent of cells with an increased forward-scatter.

[3] = system: primary cultured rat hepatocytes; test: In vitro cytotoxicity in primary cultured rat hepatocytes; assay type: cell-based; conditions: for NoEC (no effect concentration) / LCC (lowest cytotoxic concentration): 24 h treatment, highest test concentration 300 μM; for NoEC (no effect concentration): morphology and LDH leakage; for LCC (lowest cytotoxic concentration): morphology grading ≥2 or ≥2-fold increase in LDH leakage
From the text: In Vitro Cytotoxicity in Primary Cultured Rat Hepatocytes
Adult male Wistar rats were narcotized with sodium pentobarbital and hepatocytes were isolated according to a standard procedure, i.e. by in situ perfusion of the liver with a collagenase solution. The viability of the purified hepatocytes, checked by the trypan blue dye exclusion method was greater than 85%. The isolated hepatocytes were resuspended in standard Williams Medium E, without phenol red, supplemented (WME supp.) with transferrin (100 μg/ml), triiodothyronine (10 μg/ml), gentamicin (50 μg/ml), hydrocortison hemisuccinate (13.36 μg/ml), glucagon (5 μg/ml), HEPES (10 mM), inosin (10 μg/ml), insulin (10 μg/ml), streptomycin (100 μg/ml) and penicillin (100 U/ml) and 10% fetal bovine serum (FBS). The cells were plated in collagen-coated 24-well plates at an initial density of 2×10^5 cells/well. After 4 h for attachment to the culture-plates, the medium was aspirated and replaced by fresh WME supp. without FBS containing the test compounds and incubated for 24 h at 37° C. in a […] and 5% CO2 atmosphere. For each experiment, i.e., with each batch of hepatocytes, treatments with the test compounds were done in quadriplicate. Quadriplicate controls (treatment with the vehicle only) were also present on each culture plate.
Stock solutions of the test compounds were prepared in DMSO a few hours before treatment start. Appropriate dilutions of these stock solutions were added to the culture media just prior to the treatment in order to give final concentrations of 0, 3, 10, 30, 100 and 300 μM. The final concentration of the vehicle DMSO was 1% (v/v).
The morphology of the hepatocyte monolayers was monitored by light microscopy after 24 hours of exposure to the test compounds. Treatment related effects are described according to the following grading: • 0 No morphological alterations observed upon treatment when compared to the control cultures • 1-3 Treatment resulting in any morphological changes, e.g. intracellular granulation, vacuolization or cell death. Depending on the severity, these changes were regarded as slight (1), moderate (2) or strong (3). • K Treatment resulting in 100% dead cells and/or the complete detachment of the monolayer yielding a clear cell-free dish.
After 24 h treatment of the hepatocyte cultures, aliquots of culture medium were carefully collected and used for the analysis of lactate dehydrogenase (LDH) activity by spectrophotometry using the LDH cytotoxicity detection kit from Clontech (cat No. 630117, Mountain View, Calif., USA). For each experiment, additional cultures were used for the determination of total intracellular LDH activity at treatment start. For this purpose, 4 wells of cell culture per experiment were washed with cold saline before treatment start, sonicated in fresh medium and the homogenate was analyzed for total LDH activity. Enzyme activities in the culture media were assessed and expressed as percentage of the total activity present in the cultured hepatocytes at the beginning of the treatments.
The lowest cytotoxic concentration (LCC) and the no effect concentration (NoEC) are given for each compound, based on cell morphology and LDH leakage after 24 h treatment. LCC is defined as the lowest concentration of the test compound leading to a clear effect on the cultured rat hepatocytes (morphology grading ≥2 or ≥2-fold increase in LDH leakage). […]

CN(c1ncc(Cl)cn1)[C@H]1CCc2c(c3nc(F)ccc3n2CC(=O)O)C1 [COMPOUND in crystalline form 1, (S)-2-(8-((5-chloropyrimidin-2-yl)(methyl)amino)-2-fluoro-6,7,8,9-tetrahydro-5H-pyrido[3,2-b]indol-5-yl)acetic acid]
Hygroscopicity [1]: Slightly hygroscopic (mass change larger

CN(c1ncc(Cl)cn1)[C@H]1CCc2c(c3nc(F)ccc3n2CC(=O)O)C1 [COMPOUND, (S)-2-(8-((5-chloropyrimidin-2-yl)(methyl)amino)-2-fluoro-6,7,8,9-tetrahydro-5H-pyrido[3,2-b]indol-5-yl)acetic acid]
IC50 [2]: 3.1 nM
NoEC (no effect concentration) [3]: >300 µM
LCC (lowest cytotoxic concentration) [3]: >300 µM
properties in in-vitro cytotoxicity assay (in words) ([3]; summary statement): significantly improved properties

CN(c1ncc(Cl)cn1)[C@H]1CCc2c(c3cc(F)ccc3n2CC(=O)O)C1 [example 9 from WO 2011/117798, reference compound]
NoEC (no effect concentration) [3]: 30 µM
LCC (lowest cytotoxic concentration) [3]: 300 µM
